Measurements published in patent US9360471B2, “Anti-aging agents and methods to identify them” (priority 2009, dated 2016).

Tests used:
[1] = system: NIH3T3 cells; assay: mitochondrial mass in NIH3T3 cells treated with TPA; assay type: cell-based, mouse; conditions: 10 μM TPA+40 μM AICAR, two days
Method: NIH3T3 cells were incubated in DMEM medium (DMEM with 10% FCS, 100 units/mL penicillin, 100 μg/mL streptomycin and 2 mM glutamine) in the presence of control DMSO, 10 μM TPA, 1 nM rapamycin, 10 μM TPA+1 nM rapamycin, 40 μM AICAR, or 10 μM TPA+40 μM AICAR at 37° C. in a humidified atmosphere consisting of 95% air and 5% CO2 for two days. Cells were then harvested by trypsin and fixed by 60% ethanol. The cells were stained with MitoTracker Greeen FM in darkness for 30 min prior to FACS analysis. The data represents the average of a triplica-experiment.

[2] = system: NIH3T3 cells; assay: TPA-induced transformation of NIH3T3 cells, colony formation in soft agar; assay type: cell-based, mouse; conditions: 10 μM TPA + AICAR (40 μM)
Method: (A) TPA (10 μM) was incubated with NIH3T3 cells in 0.39% soft agar in the presence of DMSO, 1 nM rapamycin, or 250 nM AICAR, and cultured for 7 days prior to counting colonies under a microscope. (B) The data represents the average of four experiments.
The experiment was done as in Example 19. In brief, 1500 NIH3T3 cells were mixed with 50 μL, of 0.4% agarose in culture medium (basal medium with 10% bovine fetal serum), layered on 96-well plates pre-covered with 50 μL of 0.8% agarose in culture medium. 100 μL of culture medium containing drugs to make final DMSO, 10 μM TPA, 40 μM AICAR, or 10 μM TPA+[…] was then added into the wells. The cells were incubated in a 37° C. incubator with 5% CO2 for more than 7 days. 50 μL of fresh medium was added every 5 days. Colonies were then counted under a microscope.
Transformation of NIH 3T3 cells is a good in vitro tumorigenesis assay, which measures colony formation in soft agar (termed as anchorage-independent growth). The […] TPA (12-O-Tetradecanoylphorbol 13-acetate) is known to stimulate protein kinase C (PKC), activate oncogenes and transform mouse embryonic fibroblast NIH3T3 cells. The TPA-induced anchorage-independent growth of NIH3T3 cell was employed as a tumorigenesis assay. […] Colonies were then counted under a microscope. […]

[3] = system: human lymphoblastoid L40; assay: mitochondrial mass in human lymphoblastoid L40, MitoTracker Green FM and FACS; assay type: cell-based; conditions: 2-day treatment; 10 μM LY294002, 2 μM DATS, 1 μM BITC, 1 μM PITC, 2 μg/mL resveratrol, 0.03 μM lycopene, 6.7 μM PEITC, 5 mM silibinin, 1.25 mM selenite, 2.5 mM genistein, 250 μg/mL GSE, 50 μg/mL EGCG, 3 mg/mL bilberry extract, 1 μM AITC, 50 pM rapamycin, 250 μM AICAR
Description: Mitochondrial mass was monitored by staining the 60% Ethanol-fixed cells with MitoTracker Green FM prior to FACS analysis.

[4] = system: senescent WI-38 cells (human primary fibroblast); assay: loss of senescent WI-38 cells, β-galactosidase (X-gal) staining; assay type: cell-based; conditions: 56 days in senescence; 50 pM rapamycin, 250 μM AICAR, 20 μg/mL EGCG, 1.6 μg/mL GSE, 20 μg/mL bilberry extract, 1 μM AITC, 12.5 μM 2-deoxyglucose; 3-day-on/7-day-off (AICAR 2-day-on/8-day-off)
Method: AICAR and reduced glucose treatment were incubated with cells in a 2-day-on/8-day-off cycle, while the rest of agents were in a 3-day-on/7-day-off cycle. The treatment started at passage 29. The medium was refreshed every 3 days. After 56-days from passage 31 (senescence), the cells were briefly fixed in 2% formaldehyde/0.2% glutaraldehyde and stained with 1 mg/mL 5-bromo-4-chloro-3-indolyl β-D-galactoside (X-gal) (in buffer containing 40 mM citric acid/sodium phosphate, pH 6.0, 5 mM potassium ferrocyanide, 5 mM potassium ferricyanide, 150 mM NaCl, and 2 mM MgCl2) at 37° C. for 18 hrs for the senescence marker, cellular β-galactosidase activity (blue in color picture and dark grey in black/white picture). Surviving senescent cells were viewed under a microscope.
This invention discloses that CR or rapamycin also prolongs senescence and prevents cell death induced by telomere dysfunction in human cells. Primary human embryonic lung fibroblasts WI-38 were used. […] Cells at passage 29 were treated with 50 pM rapamycin. The treatment was on a 10-day cycle of 3-day with and 7-day without rapamycin (also termed as 3-day-on/7-day-off cycle). […] Due to increased cytosol β-galactosidase activity, senescent cells are stained a blue color (shown as dark grey in black/white picture). […] Rapamycin didn't transform cells since the senescence marker was still present and cell growth was not observed.

[5] = system: WI-38 cells; assay: MPP+ induced ROS in WI-38 cells, dehydrorhodamine 123 and FACS; assay type: cell-based, human; conditions: 200 μM MPP^+, 3 days
Method: MPP+ with various concentrations of rapamycin was incubated with WI-38 cells for 3 days. Cells were stained with dehydrorhodamine 123 in the dark for 30 min prior to FACS analysis.
MPP^+, an inhibitor of complex I (NADH CoQ1 reductase) in the mitochondrial respiratory chain, is a dopaminergic neurotoxin. It is commonly used to induce Parkinson's disease in […]. Human primary fibroblast WI-38 cells were treated with 200 μM MPP^+ for 3 days. Cells were then stained with dehydrorhodamine 123 in the dark for 30 min. Cells were then analyzed by FACS.

NC(=O)c1ncn([C@@H]2O[C@H](CO)[C@@H](O)[C@H]2O)c1N [AICAR, 5-aminoimidazole-4-carboxamide-1-beta-D-ribofuranoside, reference compound]
mitochondrial mass decrease induced by TPA [1]: reverses the decrease in mitochondrial mass
anchorage-independent growth of NIH3T3 cells induced by TPA [2]: inhibits the anchorage-independent growth
mitochondrial mass [3]: increased
loss of the senescent WI-38 cells [4]: prevented

C[n+]1ccc(-c2ccccc2)cc1 [MPP^+]
ROS level in WI-38 cells [5]: greatly increased ROS level
